In patent US10329305B2, “Amorphous solid form of a BET protein inhibitor” (Incyte Corporation, priority 2015, dated 2019):
≈ marks a conversion by molar mass, not a printed value.

Tests used:
Assay type in all cases: physicochemical
[1] = Stability of amorphous Compound 1-(S) under elevated temperature and humidity (Karl-Fischer water content, HPLC/UV purity, XRPD); conditions: for Solid Form (XRPD) / Purity 220 nm / Purity 254 nm / Water content: open vial; for Purity 220 nm / Purity 254 nm: HPLC/UV; for Water content: Karl-Fischer
Protocol: Table 1 indicates the conditions/time to which the amorphous form was subjected and provides the measured water content (Karl-Fischer analysis) and purity (by HPLC/UV). The HPLC/UV instrument was Agilent HPLC 1100 with an Agilent Zorbax SB-C18, 3.5 μm, 4.6×150 mm column. The HPLC conditions were as follows: column temperature: 40° C.; mobile phase A (MPA): 0.05% (v/v) trifluoroacetic acid (TFA) in water; mobile phase B (MPB): 0.05% (v/v) TFA in acetonitrile; and flow rate: 1 mL/min.
The gradient conditions were as follows: […]

[2] = Formulation of amorphous Compound 1-(S): solubility in vehicles; conditions: for solubility: aqueous with cosolvent or surfactant or cyclodextrin, thermodynamic from solid
Description: Amorphous Compound 1-(S) was formulated as described in the table below. Table 2 indicates the target concentration, final pH, solubility, and some observation of the resulting formulations.

[3] = Glass transition temperature by modulated DSC (MDSC); conditions: ramp rate 2° C./min, 10-150° C.
Protocol: The glass transition temperature (Tg) was determined to be 105.8° C. by modulated DSC (MDSC) using TA Instruments Differential Scanning calorimetry, Model Q2000 with autosampler. The MDSC instrument conditions were as follows: modulation temperature amplitude: ±1° C.; modulation: 60 second; ramp rate: 2° C./min; temperature range: 10-150° C.; Tzero aluminum sample pan and lid; and nitrogen gas flow at 50 mL/min.

**Q.** Which “Solid Form (XRPD)” value ([1]; 40° C./75% RH, 0 weeks) does the source give for `Cc1noc(C)c1-c1ccc2[nH]c(=O)n3c2c1OC[C@@H]3c1ccccn1` [Amorphous Compound 1-(S), (4S)-7-(3,5-dimethylisoxazol-4-yl)-4-pyridin-2-yl-4,5-dihydroimidazo[1,5,4-de][1,4]benzoxazin-2(1H)-one] here?
**A.** Its value is “Amorphous”.

**Q.** And the “Purity 220 nm” value ([1]; 40° C./75% RH, 0 weeks)?
**A.** Its value is 98.22%.

**Q.** What about the “Purity 254 nm” value ([1]; 40° C./75% RH, 0 weeks) of the same compound?
**A.** Its value is 97.10%.

**Q.** And the Water content ([1]; 40° C./75% RH, 0 weeks)?
**A.** The Water content was 1.67%.

**Q.** What about the “Purity 220 nm” value ([1]; 40° C./75% RH, 1 week) of the same compound?
**A.** The value was 98.22%.

**Q.** What about the “Purity 254 nm” value ([1]; 40° C./75% RH, 1 week) of the same compound?
**A.** Its value is 97.10%.

**Q.** And the Water content ([1]; 40° C./75% RH, 1 week)?
**A.** The Water content was 3.39%.

**Q.** What about the “Solid Form (XRPD)” value ([1]; 40° C./75% RH, 2 weeks) of the same compound?
**A.** The value was “Amorphous”.

**Q.** And the “Purity 220 nm” value ([1]; 40° C./75% RH, 2 weeks)?
**A.** The value was 98.18%.

**Q.** What about the “Purity 254 nm” value ([1]; 40° C./75% RH, 2 weeks) of the same compound?
**A.** Its value is 97.10%.

**Q.** What about the Water content ([1]; 40° C./75% RH, 2 weeks) of the same compound?
**A.** Its Water content is 2.64%.

**Q.** What about the “Solid Form (XRPD)” value ([1]; 50° C., 0 weeks) of the same compound?
**A.** Its value is “Amorphous”.

**Q.** What about the “Purity 220 nm” value ([1]; 50° C., 0 weeks) of the same compound?
**A.** Its value is 98.22%.

**Q.** And the “Purity 254 nm” value ([1]; 50° C., 0 weeks)?
**A.** Its value is 97.10%.

**Q.** What about the Water content ([1]; 50° C., 0 weeks) of the same compound?
**A.** The Water content was 1.67%.

**Q.** And the “Purity 220 nm” value ([1]; 50° C., 1 week)?
**A.** Its value is 98.12%.

**Q.** And the “Purity 254 nm” value ([1]; 50° C., 1 week)?
**A.** Its value is 97.11%.

**Q.** And the Water content ([1]; 50° C., 1 week)?
**A.** Its Water content is 0.69%.

**Q.** What about the “Solid Form (XRPD)” value ([1]; 50° C., 2 weeks) of the same compound?
**A.** The value was “Amorphous”.

**Q.** And the “Purity 220 nm” value ([1]; 50° C., 2 weeks)?
**A.** The value was 98.23%.

**Q.** And the “Purity 254 nm” value ([1]; 50° C., 2 weeks)?
**A.** The value was 97.11%.

**Q.** And the Water content ([1]; 50° C., 2 weeks)?
**A.** The Water content was 0.43%.

**Q.** And the physical stability ([1]; elevated temperature and humidity)?
**A.** The physical stability was “physically stable”.

**Q.** What about the Observations ([2]; 0.5% MC in 50 mM citrate, pH 3.0, target concentration 0.5 mg/mL) of the same compound?
**A.** Its Observations is “solution”.

**Q.** What about the Observations ([2]; 0.5% MC in 50 mM citrate, pH 3.0, target concentration 2.5 mg/mL) of the same compound?
**A.** The Observations was “suspension”.

**Q.** What about the Observations ([2]; 0.5% MC in water, target concentration 0.5 mg/mL) of the same compound?
**A.** The Observations was “solution”.

**Q.** And the Observations ([2]; 0.5% MC in water, target concentration 2.5 mg/mL)?
**A.** Its Observations is “suspension”.

**Q.** And the Observations ([2]; 10% TPGS in 50 mM citrate, pH 3.0, target concentration 2.5 mg/mL)?
**A.** Its Observations is “solution”.

**Q.** And the solubility ([2]; 0.5% MC in 50 mM citrate, pH 3.0, target concentration 0.5 mg/mL, final pH 3.00)?
**A.** Its solubility is over 500 µg/mL.

**Q.** What about the solubility ([2]; 0.5% MC in 50 mM citrate, pH 3.0, target concentration 2.5 mg/mL, final pH 3.03) of the same compound?
**A.** Its solubility is 1150 µg/mL (≈ 3300 µM).

**Q.** And the solubility ([2]; 0.5% MC in water, target concentration 0.5 mg/mL, final pH 6.76)?
**A.** Its solubility is over 500 µg/mL.

**Q.** And the solubility ([2]; 0.5% MC in water, target concentration 2.5 mg/mL, final pH 7.87)?
**A.** Its solubility is 842 µg/mL (≈ 2420 µM).

**Q.** And the solubility ([2]; 10% TPGS in 50 mM citrate, pH 3.0, target concentration 2.5 mg/mL, final pH 3.07)?
**A.** The solubility was over 2500 µg/mL.

**Q.** And the “glass transition temperature (Tg)” value [3]?
**A.** The value was 105.8 °C.
